Measurements: patent US20140378460A1, “COMPOSITIONS AND METHODS FOR TREATING NEURODEGENERATIVE DISEASE” (COGNITION THERAPEUTICS, INC., priority 2011, published 2014)
Where two headings read alike, the source gives them in different places.

What was measured:
[1] = biological target: T1, sigma-2 receptor (Rattus norvegicus, UniProt Q5U3Y7); assay: Sigma-2 competitive radioligand binding, [3H]DTG with 300 nM (+)pentazocine, rat cerebral cortex membranes
T1 sequence (Q5U3Y7 1-176): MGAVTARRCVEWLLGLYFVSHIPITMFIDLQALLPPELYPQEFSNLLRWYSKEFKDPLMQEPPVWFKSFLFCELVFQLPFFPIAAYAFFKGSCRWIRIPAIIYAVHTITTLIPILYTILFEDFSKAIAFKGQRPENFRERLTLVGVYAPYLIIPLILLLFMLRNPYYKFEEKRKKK
Experimental: (§1) Reactions were terminated by rapid filtration through Whatman GF/C filters using a Brandel 12R cell harvester followed by two washes with ice-cold buffer. Radioactivity on the dried filter discs was measured using a liquid scintillation analyzer (Tri-Carb 2900TR; PerkinElmer Life and Analytical Sciences). The displacement curves were plotted and the Ki values of the test ligands for the receptor subtypes were determined using GraphPad Prism (GraphPad Software Inc., San Diego, Calif.). The percentage specific binding was determined by dividing the difference between total bound (disintegrations per minute) and nonspecific bound (disintegrations per minute) by the total bound (disintegrations per minute).

[2] = system: Abeta oligomer-induced membrane trafficking deficits in primary hippocampal neurons; assay: Membrane trafficking/exocytosis (MTT) assay; format: cell-based, rat; settings: for IC50: read-out: Membrane trafficking IC50
Experimental: The methods used to generate the results were as follows in the Membrane Trafficking/Exocytosis (MTT) assay.
Primary hippocampal neurons from E18 Sprague-Dawley rat embryos were plated at optimized concentrations in 384 well plates in NB media (Invitrogen). Neurons were maintained in cultures for 3 weeks, with twice weekly feeding of NB media with N2 supplement (Invitrogen).
A test compound was added to cells at concentrations ranging from 100 uM to 0.001 nM followed by addition of vehicle or Abeta oligomer preparations (3 μM total Abeta protein concentration), and incubated for 1 to 24 hr at 37° C. in 5% CO2. MTT reagent (3-(4,5-dimethylthizaol-2-yl)-2,5diphenyl tetrazolium bromide) (Roche Molecular Biochemicals) was reconstituted in phosphate buffered saline to 5 mg/mL. 10 μl, of MTT labeling reagent is added to each well and incubated at 37° C. for 1 h, then imaged. Exocytosis was assessed by automated microscopy and image processing to quantify the amount of endocytosed and exocytosed formazan.
Each assay plate was formatted so that compounds are tested with and without Abeta oligomer on each plate.

[3] = system: Abeta oligomer-induced synapse loss in primary hippocampal neurons; assay: Synapse loss assay; format: cell-based, rat; settings: for Block synapse loss: Table 11B
Experimental: In this assay, Abeta oligomers were brought in contact with mature primary neurons in culture and their binding was determined by immunohistochemistry (anti-Abeta antibody) and quantified by image processing. The amount of Abeta in neuronal dendrites is assessed by counting the number of labeled puncta on the neuritis. […] This labeling is associated with synapses, co-localizing with the post-synaptic scaffold protein PSD-95 (Lacor et al., '04). […] The number of synapses can also be quantified in this assay by immunofluorochemistry. Similar procedures for binding assays can be found in the literature. […] Review.
Primary hippocampal neuronal culture was established as in the membrane trafficking assay above. […] Pretreatment with compounds to be tested lasted for 1 hr and addition of Abeta oligomers or no oligomer (vehicle alone) in a final concentration of 70 ul was followed by incubation for an additional 23 hrs.
The plates were then washed 3× with PBS for 5 min each. The plates were blocked at RT for 1 hr in 5% goat serum and 0.5% Triton X-100 in PBS. […] Primary antibodies were incubated overnight at 4° C. The plates were then washed 3× with PBS for 5 min each. […] Secondary antibodies were incubated at RT for 1 hr. The plates were washed once with PBS. DAPI (4′,6-diamidino-2-phenylindole, Invitrogen) was then applied at 0.03 ug/ul and incubated at RT for 5 min, then washed with PBS.

[4] = biological target: Sigma-1 receptors (Homo sapiens, UniProt Q99720); assay: Sigma-1 competitive radioligand binding, [3H](+)pentazocine, Jurkat cell membranes
Sigma-1 receptors (Homo sapiens, UniProt Q99720), sequence (Q99720 whole entry): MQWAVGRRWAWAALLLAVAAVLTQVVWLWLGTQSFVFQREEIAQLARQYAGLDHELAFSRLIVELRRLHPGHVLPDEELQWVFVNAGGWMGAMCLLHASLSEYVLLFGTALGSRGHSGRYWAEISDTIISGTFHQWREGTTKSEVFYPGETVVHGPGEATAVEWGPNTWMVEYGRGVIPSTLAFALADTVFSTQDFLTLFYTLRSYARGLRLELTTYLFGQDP
Experimental: as §1

[5] = biological target: T1, sigma-2 receptor; set-up: other: known prior art compounds, published studies; settings: cited from earlier work
[6] = system: Sigma-1 receptors; settings: known prior art compounds; cited from earlier work
[7] = biological target: T2, Sigma-1 receptors (UniProt Q60492); settings: cited from earlier work
T2 construct: other: known prior art compounds, published studies

[8] = system: neuronal cultures
[9] = system: caspase-3 in SKOV-3 human ovarian cancer cells; assay: Caspase-3 activity in tumor cells; format: cell-based
[10] = system: SKOV-3 human ovarian cancer cell line; assay: MTS tumor cell viability assay; format: cell-based; settings: for Action: by EC50 relative to siramesine
Experimental: The cytotoxicity of compounds shown below was determined using the CellTiter96 Aqueous One Solution Assay (Promega, Madison, Wis.). […] The plate was read at 490 nm in a Victor3 plate reader (PerkinElmer Life and Analytical Sciences, Shelton, Conn.). The EC^50 value, defined as the concentration of the sigma ligand required to inhibit cell viability by 50% relative to untreated cells, was determined from the dose response curve for each cell line.

[11] = system: caspase-3 in neuronal cultures; assay: Caspase-3 activity in neurons; format: cell-based
[12] = Sigma 2 Binding Ki (nM), Table 2, own compounds
[13] = Sigma 1 Binding Ki (nM), Table 2, own compounds
[14] = dosed prior to Abeta oligomer addition, read-out: EC50 in inhibiting amyloid beta effect in Cell Measured by Membrane Trafficking Assay
[15] = Table 11C, read-out: S2 binding Ki
[16] = Table 11D, read-out: Sigma-2 Receptor Ki
[17] = known prior art compounds, published studies, read-out: Sigma 2 Binding Ki
[18] = Table 11C, known prior art compounds, read-out: Inhibition Abeta oligomer-induced Membrane Trafficking EC50
[19] = Table 11C, read-out: S1 binding Ki
[20] = known prior art compounds, published studies, read-out: Sigma 1 Binding Ki
[21] = Rattus norvegicus, Hippocampal neuron, dosed prior to Abeta oligomer addition, read-out: EC50 in inhibiting amyloid beta effect in Cell Measured by Membrane Trafficking Assay
[22] = Rattus norvegicus, Hippocampal neuron, Table 11C, known prior art compounds, read-out: Inhibition Abeta oligomer-induced Membrane Trafficking EC50
[23] = scaffold drawing 245, R' varied, read-out: Membrane Trafficking EC50
[24] = Table 11D, read-out: Sigma-1 Receptor Ki

Compound: COc1cc(CCC(C)NCc2ccc(C(F)(F)F)cc2)ccc1O (single isomer, unassigned) [II (+) isomer]
- Ki ([1]; S2 binding Ki (nM), Table 11B): 80 nM
- Ki [1, 12]: 52 nM
- EC50 ([2]; Rattus norvegicus, Hippocampal neuron, Table 11B, read-out: Inhibition Abeta oligomer-induced Membrane Trafficking EC50): 5.6 µM
- Functional Neuronal Phenotype ([2]; Table 11B): Antagonist
- Block synapse loss [3]: 47%
- Ki ([4]; S1 binding Ki (nM), Table 11B): 100 nM
- Ki [4, 13]: 100 nM

Compound: COc1cc(CCC(C)NCc2ccc(C(F)(F)F)cc2)ccc1O (single isomer, unassigned) [II (−) isomer]
- Ki ([1]; S2 binding Ki (nM), Table 11B): 63 nM
- Ki [1, 12]: 63 nM
- Functional Neuronal Phenotype ([2]; Table 11B): Antagonist
- Block synapse loss [3]: 0%
- Ki ([4]; S1 binding Ki (nM), Table 11B): 46 nM
- Ki [4, 13]: 46 nM

Compound: COc1cc(CCC(C)NCc2ccc(C(F)(F)F)cc2)ccc1O (single isomer, unassigned; (+)) [(+) enantiomer of Cpd II]
- EC50 ([2]; read-out: EC 50 in screening assay using single concentration of Abeta oligomer): 5.6 µM

Compound: COc1cc(CCC(C)NCc2ccc(C(F)(F)F)cc2)ccc1O (single isomer, unassigned; (+)) [(+) enantiomer]
- EC50 [2, 14]: 5.6 µM

Compound: COc1cc(CCC(C)NCc2ccc(C(F)(F)F)cc2)ccc1O (single isomer, unassigned; (-)) [(−) enantiomer]
- EC50 [2, 14]: 10.9 µM

Compound: CN(CCc1ccc(Cl)c(Cl)c1)CCN1CCCC1 [BD1008]
- Ki [5, 15]: 0.008 µM
- Ki [5, 16]: 0.008 µM
- Ki [5, 17]: 0.008 µM
- Functional Neuronal Phenotype ([2]; Table 11C): Antagonist
- EC50 [2, 18]: 1.5 µM
- Functional Neuronal Phenotype ([2]; Table 11D): Antagonist
- IC50 ([2]; Table 11D): 1.5 µM
- Sigma 1 (Type of Activity) [6]: (antagonist)

Compound: CN1CCN(CCc2ccc(Cl)c(Cl)c2)CC1 [BD1063]
- Functional Neuronal Phenotype ([2]; Table 11C): Inactive
- EC50 [2, 18]: > 30 µM
- Ki [7, 19]: 0.0088 µM
- Ki [7, 20]: 0.0088 µM
- Sigma 1 (Type of Activity) [6]: (antagonist)

Compound: CC(C)=CC(C[C@H](C)c1ccc(C)cc1)NCC(C)C (stereo partly shown) [Compound IXa]
- Ki [1]: 21 nM
- Max Inhibition of Abeta (%) [2]: 76%
- EC50 [2, 21]: 4.9 µM
- Ki [4]: 89 nM

Compound: Cc1ccc([C@@H](C)CC(CC(C)(C)O)NCC(C)C)cc1 (stereo partly shown) [Compound IXb]
- Ki [1]: 23 nM
- Max Inhibition of Abeta (%) [2]: 97%
- EC50 [2, 21]: 6.9 µM
- Ki [4]: 190 nM

Compound: Cc1ccccc1NC(=N)Nc1ccccc1C [DTG]
- Max Inhibition of Abeta (%) [2]: 23%
- EC50 [2, 22]: > 20 µM
- Functional Neuronal Phenotype ([2]; Table 11C): Inactive
- Sigma 1 (Type of Activity) [6]: (agonist)

Compound: COc1cc(CCC(C)NCc2ccc(Cl)cc2)ccc1O (stereo not shown) [Entry 2]
- EC50 [2, 23]: 12 µM

Compound: COc1cc(CCC(C)NCc2ccccc2)ccc1O (stereo not shown) [Entry 3]
- EC50 [2, 23]: 20 µM

Compound: COc1cc(CCC(C)NCCC(C)C)ccc1O (stereo not shown) [Entry 4]
- EC50 [2, 23]: > 30 µM

Compound: CNC(C)CCc1ccc(O)c(OC)c1 (stereo not shown) [Entry 5]
- EC50 [2, 23]: 30 µM

Compound: CC(C(O)c1ccc(O)cc1)N1CCC(Cc2ccccc2)CC1 (stereo not shown) [Ifenprodil]
- Max Inhibition of Abeta (%) [2]: 38%
- EC50 [2, 22]: > 20 µM
- Functional Neuronal Phenotype ([2]; Table 11C): Inactive

Compound: CC12CC3CC(C)(C1)CC(N)(C3)C2 [Memantine, memantine]
- inhibition at 28 µM ([2]; Rattus norvegicus, Hippocampal neuron, 28 μM, read-out: Inhibition of oligomer effects): 50%

Compound: CCCN(CCC)CCc1ccc(OC)c(OCCc2ccccc2)c1 [NE100]
- Ki [5, 17]: 0.17 µM
- Ki [7, 20]: 0.0011 µM
- Sigma 1 (Type of Activity) [6]: (antagonist)

Compound: CCCN(CCC)CCc1ccc(OC)c(OCCc2ccccc2)c1 [NE 100]
- Ki [5, 15]: 0.17 µM
- Ki [5, 16]: 0.17 µM
- Max Inhibition of Abeta (%) [2]: 98%
- Functional Neuronal Phenotype ([2]; Table 11C): Antagonist
- EC50 [2, 18]: 1.3 µM
- Functional Neuronal Phenotype ([2]; Table 11D): Antagonist
- IC50 ([2]; Table 11D): 1.3 µM
- Ki [7, 19]: 0.0011 µM
- Ki [7, 24]: 0.0011 µM

Compound: CCCN(CCC)CCc1ccc(OC)c(OCCc2ccccc2)c1 [NE-100]
- Effect on Abeta oligomer-induced synapse loss [3]: completely eliminated synapse loss

Compound: COc1cccc2c1CCCC2CCCN1CCN(C2CCCCC2)CC1 (stereo not shown) [PB 28]
- Ki [5, 15]: 0.0008 µM
- Ki [5, 16]: 0.0008 µM
- Ki [5, 17]: 0.0008 µM
- Max Inhibition of Abeta (%) [2]: 84%
- Functional Neuronal Phenotype ([2]; Table 11C): Antagonist
- EC50 [2, 18]: 1 µM
- Functional Neuronal Phenotype ([2]; Table 11D): Antagonist
- IC50 ([2]; Table 11D): 1 µM

Compound: c1ccc(CCCCN2CCC(c3ccccc3)CC2)cc1 [PPBP]
- Functional Neuronal Phenotype ([2]; Table 11C): Antagonist
- EC50 [2, 18]: 10.9 µM
- Functional Neuronal Phenotype ([2]; Table 11D): Antagonist
- IC50 ([2]; Table 11D): 10.9 µM
- Ki [7, 19]: 0.0008 µM
- Ki [7, 24]: 0.0008 µM
- Ki [7, 20]: 0.0008 µM
- Sigma 1 (Type of Activity) [6]: (agonist)

Compound: O=C(OCCN1CCOCC1)C1(c2ccccc2)CCCCC1 [PRE-84]
- Ki [5, 17]: 13.1 µM
- Activity in membrane trafficking assay [2]: inactive
- Max Inhibition of Abeta (%) [2]: 38%
- Functional Neuronal Phenotype ([2]; Table 11C): Inactive
- EC50 [2, 18]: > 30 µM
- Sigma 1 (Type of Activity) [6]: (agonist)

Compound: COc1cc2c(cc1OC)CN(CCCCNC(=O)c1cc(C)ccc1OC)CC2 [RHM-1, N-[4-(3,4-dihydro-6,7-dimethoxyisoquinolin-2(1H)-yl)butyl]-2-methoxy-5-methylbenzamide]
- Nuclear morphology / nuclear intensity in neurons [8]: did not decrease nuclear intensity
- Block of SV-119-induced caspase-3 activation in tumor cells [9]: do not block caspase-3 activation
- Caspase-3 activity induced in tumor cells [9]: did not induce caspase-3 activity
- Effect on Abeta oligomer trafficking deficits over the concentrations tested [2]: blocks oligomer-induced trafficking deficits at all concentrations tested
- Action [10]: Antagonist
- Caspase-3 activity induced in neurons [11]: did not induce caspase-3 activity

Compound: C=CCN1CCC2(C)c3cc(O)ccc3CC1C2C (stereo not shown) [SFK10047]
- Ki [5, 17]: 39.7 µM
- Sigma 1 (Type of Activity) [6]: (agonist)

Compound: C=CCN1CC[C@]2(C)c3cc(O)ccc3C[C@H]1[C@H]2C [SKF 10,047]
- Ki [5, 15]: > 10 µM
- Functional Neuronal Phenotype ([2]; Table 11C): Inactive
- EC50 [2, 18]: > 30 µM

Compound: CN[C@H]1CC[C@@H](c2ccc(Cl)c(Cl)c2)c2ccccc21 [Sertraline]
- Sigma 1 (Type of Activity) [6]: (antagonist)

Compound: COc1ccc(C)cc1NC(=O)OC1CC2CCCC(C1)N2Cc1ccc(N(C)C)cc1 (stereo not shown) [WC-26]
- Ki ([5]; read-out: S2 binding Ki, Table 11C): 0.003 µM
- Nuclear morphology / nuclear intensity in neurons [8]: caused significant abnormal nuclear morphology
- EC50 [2, 22]: 1.6 µM
- Functional Neuronal Phenotype ([2]; Table 11C): Agonist
- IC50 ([10]; Homo sapiens, SK-OV-3, tumor cell viability, 48 hrs): 65.6 ± 6.3 µM
- Action [10]: Partial agonist
- Ki [7, 19]: 1.4 µM
